In patent publication US20230295200A1 (REGENTS OF THE UNIVERSITY OF MICHIGAN, priority 2022, published 2023):

Tests used:
[1] = target: T1, STAT6 protein (Homo sapiens, UniProt P42226); assay: Fluorescence polarization (FP) binding assay, STAT6; settings: FP competition, 5 nM fluorescein-labeled tracer, 200 nM protein, PBS pH7.4; read-out: Binding STAT6
T1 sequence (P42226 1-847): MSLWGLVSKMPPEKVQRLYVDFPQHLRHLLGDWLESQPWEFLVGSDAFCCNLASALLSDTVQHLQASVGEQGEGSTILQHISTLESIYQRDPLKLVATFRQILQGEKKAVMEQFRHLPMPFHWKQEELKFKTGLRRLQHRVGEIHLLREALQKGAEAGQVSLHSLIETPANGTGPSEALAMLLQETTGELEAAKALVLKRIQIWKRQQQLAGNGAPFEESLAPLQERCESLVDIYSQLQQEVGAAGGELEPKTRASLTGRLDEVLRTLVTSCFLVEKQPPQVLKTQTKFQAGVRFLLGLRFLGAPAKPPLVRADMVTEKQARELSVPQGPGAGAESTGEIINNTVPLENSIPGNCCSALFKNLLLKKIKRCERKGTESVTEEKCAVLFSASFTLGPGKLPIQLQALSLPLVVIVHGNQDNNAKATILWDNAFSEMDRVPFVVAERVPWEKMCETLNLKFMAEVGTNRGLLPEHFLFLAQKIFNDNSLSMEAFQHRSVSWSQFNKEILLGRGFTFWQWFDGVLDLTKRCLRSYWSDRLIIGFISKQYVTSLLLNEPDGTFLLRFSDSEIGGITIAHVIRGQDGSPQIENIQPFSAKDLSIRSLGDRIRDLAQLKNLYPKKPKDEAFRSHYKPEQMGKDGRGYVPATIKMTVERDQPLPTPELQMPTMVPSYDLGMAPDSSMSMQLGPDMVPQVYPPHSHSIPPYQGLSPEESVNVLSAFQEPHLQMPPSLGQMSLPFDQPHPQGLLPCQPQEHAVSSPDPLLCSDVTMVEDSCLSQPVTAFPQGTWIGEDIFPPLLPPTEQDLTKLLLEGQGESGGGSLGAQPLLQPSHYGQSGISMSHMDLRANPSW
Method in brief: (§1)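 Polarization of a 5 nM fluorescein tracer bound by 200 nM STAT protein, measured after 1 h room-temperature equilibration in buffered PBS pH 7.4 with DTT, gave inhibition constants via nonlinear curve fitting.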

[2] = target: T2, STAT5A (Homo sapiens, UniProt P42229); assay: Fluorescence polarization (FP) binding assay, STAT5A; settings: FP competition, 5 nM fluorescein-labeled tracer, 200 nM protein, PBS pH7.4
T2 sequence (P42229 1-794): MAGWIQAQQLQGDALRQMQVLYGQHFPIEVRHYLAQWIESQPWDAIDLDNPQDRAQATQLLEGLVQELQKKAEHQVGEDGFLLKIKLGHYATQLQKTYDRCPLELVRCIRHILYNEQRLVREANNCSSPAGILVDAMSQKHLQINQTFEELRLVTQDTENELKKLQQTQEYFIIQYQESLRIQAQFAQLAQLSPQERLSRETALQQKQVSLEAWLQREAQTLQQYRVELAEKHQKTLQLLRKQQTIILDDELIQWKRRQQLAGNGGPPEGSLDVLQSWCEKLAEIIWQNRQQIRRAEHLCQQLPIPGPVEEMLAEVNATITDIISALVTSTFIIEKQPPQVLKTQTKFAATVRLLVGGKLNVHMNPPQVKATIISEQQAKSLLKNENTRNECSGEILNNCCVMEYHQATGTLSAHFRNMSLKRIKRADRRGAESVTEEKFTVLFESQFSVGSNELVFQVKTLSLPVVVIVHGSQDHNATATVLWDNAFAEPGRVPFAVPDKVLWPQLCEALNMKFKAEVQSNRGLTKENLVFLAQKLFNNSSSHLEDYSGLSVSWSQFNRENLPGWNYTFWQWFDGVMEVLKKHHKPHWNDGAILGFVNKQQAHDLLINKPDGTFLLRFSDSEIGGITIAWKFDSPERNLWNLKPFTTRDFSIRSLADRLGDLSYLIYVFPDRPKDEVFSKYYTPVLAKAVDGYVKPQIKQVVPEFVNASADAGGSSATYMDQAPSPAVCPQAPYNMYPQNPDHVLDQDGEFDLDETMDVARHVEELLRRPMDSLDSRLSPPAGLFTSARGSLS
Method in brief: as §1

| Compound | Ki [1] | Ki [2] |
| --- | --- | --- |
| CCC[C@H](NC(=O)c1cc2cc(C(F)(F)P(=O)(O)O)ccc2s1)C(=O)N1CCC[C@H]1C(=O)N1CCO[C@@H](c2ccccc2)C1 [Compound 152, (difluoro(2-(((S)-1-oxo-1-((S)-2-((S)-2-phenylmorpholine-4-carbonyl)pyrrolidin-1-yl)pentan-2-yl)carbamoyl)benzo[b]thiophen-5-yl)methyl)phosphonic acid] | 1 to 10 µM | > 10 µM |
| C#CC[C@H](NC(=O)c1cc2cc(C(F)(F)P(=O)(O)O)ccc2s1)C(=O)N1CCC[C@H]1C(=O)N1CCO[C@@H](c2ccccc2)C1 [Compound 153, (difluoro(2-(((S)-1-oxo-1-((S)-2-((S)-2-phenylmorpholine-4-carbonyl)pyrrolidin-1-yl)pent-4-yn-2-yl)carbamoyl)benzo[b]thiophen-5-yl)methyl)phosphonic acid] | 1 to 10 µM | > 10 µM |
| O=C(N[C@H](C(=O)N1CCC[C@H]1C(=O)N1CCO[C@@H](c2ccccc2)C1)C1CC1)c1cc2cc(C(F)(F)P(=O)(O)O)ccc2s1 [Compound 154, ((2-(((S)-1-cyclopropyl-2-oxo-2-((S)-2-((S)-2-phenylmorpholine-4-carbonyl)pyrrolidin-1-yl)ethyl)carbamoyl)benzo[b]thiophen-5-yl)difluoromethyl)phosphonic acid] | 1 to 10 µM | > 10 µM |
| O=C(NC1(C(=O)N2CCC[C@H]2C(=O)N2CCO[C@@H](c3ccccc3)C2)CCC1)c1cc2cc(C(F)(F)P(=O)(O)O)ccc2s1 [Compound 155, (difluoro(2-((1-((S)-2-((S)-2-phenylmorpholine-4-carbonyl)pyrrolidine-1-carbonyl)cyclobutyl)carbamoyl)benzo [b]thiophen-5-yl)methyl)phosphonic acid] | > 10 µM | > 10 µM |
| CC(C)(O)[C@H](NC(=O)c1cc2cc(C(F)(F)P(=O)(O)O)ccc2s1)C(=O)N1CCC[C@H]1C(=O)N1CCO[C@@H](c2ccccc2)C1 [Compound 156, (difluoro(2-(((S)-3-hydroxy-3-methyl-1-oxo-1-((S)-2-((S)-2-phenylmorpholine-4-carbonyl)pyrrolidin-1-yl)butan-2-yl)carbamoyl)benzo[b]thiophen-5-yl)methyl)phosphonic acid] | 1 to 10 µM | > 10 µM |
| CC(=O)N1CC[C@H]2CC[C@@H](C(=O)N3CCC[C@@H](c4ccccc4)C3)N2C(=O)[C@@H](NC(=O)c2cc3cc(C(F)(F)P(=O)(O)O)ccc3s2)C1 [Compound 157, ((2-(((5S,8S,10aR)-3-acetyl-6-oxo-8-((S)-3-phenylpiperidine-1-carbonyl)decahydropyrrolo[1,2-a][1,5]diazocin-5-yl)carbamoyl)benzo[b]thiophen-5-yl)difluoromethyl)phosphonic acid] | 1 to 10 µM | > 10 µM |
| CC(=O)N1CC[C@H]2CC[C@@H](C(=O)N3CCC[C@H](c4ccccc4)C3)N2C(=O)[C@@H](NC(=O)c2cc3cc(C(F)(F)P(=O)(O)O)ccc3s2)C1 [Compound 158, ((2-(((5S,8S,10aR)-3-acetyl-6-oxo-8-((R)-3-phenylpiperidine-1-carbonyl)decahydropyrrolo[1,2-a][1,5]diazocin-5-yl)carbamoyl)benzo[b]thiophen-5-yl)difluoromethyl)phosphonic acid] | 0.1 to 1 µM | > 10 µM |
| CC(=O)N1CC[C@H]2CC[C@@H](C(=O)N3CCOC(C)(c4ccc(F)cc4)C3)N2C(=O)[C@@H](NC(=O)c2cc3cc(C(F)(F)P(=O)(O)O)ccc3s2)C1 (stereo partly drawn) [Compound 159, ((2-(((5S,8S,10aR)-3-acetyl-8-(2-(4-fluorophenyl)-2-methylmorpholine-4-carbonyl)-6-oxodecahydropyrrolo[1,2-a][1,5]diazocin-5-yl)carbamoyl)benzo[b]thiophen-5-yl)difluoromethyl)phosphonic acid] | 1 to 10 µM | > 10 µM |
| CC(=O)N1CC[C@H]2CC[C@@H](C(=O)N3CCOC(C)(c4ccc(Cl)cc4)C3)N2C(=O)[C@@H](NC(=O)c2cc3cc(C(F)(F)P(=O)(O)O)ccc3s2)C1 (stereo partly drawn) [Compound 160, ((2-(((5S,8S,10aR)-3-acetyl-8-(2-(4-chlorophenyl)-2-methylmorpholine-4-carbonyl)-6-oxodecahydropyrrolo[1,2-a][1,5]diazocin-5-yl)carbamoyl)benzo[b]thiophen-5-yl)difluoromethyl)phosphonic acid] | 1 to 10 µM | > 10 µM |
| CC(=O)N1CC[C@H]2CC[C@@H](C(=O)N3CCOC(c4ccc(F)cc4)C3)N2C(=O)[C@@H](NC(=O)c2cc3cc(C(F)(F)P(=O)(O)O)ccc3s2)C1 (stereo partly drawn) [Compound 161, ((2-(((5S,8S,10aR)-3-acetyl-8-(2-(4-fluorophenyl)morpholine-4-carbonyl)-6-oxodecahydropyrrolo[1,2-a][1,5]diazocin-5-yl)carbamoyl)benzo[b]thiophen-5-yl)difluoromethyl)phosphonic acid] | 0.1 to 1 µM | > 10 µM |
| CC(=O)N1CC[C@H]2CC[C@@H](C(=O)N3CCOC(c4cccc(Cl)c4)C3)N2C(=O)[C@@H](NC(=O)c2cc3cc(C(F)(F)P(=O)(O)O)ccc3s2)C1 (stereo partly drawn) [Compound 162, ((2-(((5S,8S,10aR)-3-acetyl-8-(2-(3-chlorophenyl)morpholine-4-carbonyl)-6-oxodecahydropyrrolo[1,2-a][1,5]diazocin-5-yl)carbamoyl)benzo[b]thiophen-5-yl)difluoromethyl)phosphonic acid] | 0.1 to 1 µM | > 10 µM |
| CC(=O)N1CC[C@H]2CC[C@@H](C(=O)N3CCOC(c4cc(F)c(Cl)cc4Cl)C3)N2C(=O)[C@@H](NC(=O)c2cc3cc(C(F)(F)P(=O)(O)O)ccc3s2)C1 (stereo partly drawn) [Compound 163, ((2-(((5S,8S,10aR)-3-acetyl-8-(2-(2,4-dichloro-5-fluorophenyl)morpholine-4-carbonyl)-6-oxodecahydropyrrolo[1,2-a][1,5]diazocin-5-yl)carbamoyl)benzo[b]thiophen-5-yl)difluoromethyl)phosphonic acid] | 1 to 10 µM | > 10 µM |
| CC(=O)N1CC[C@H]2CC[C@@H](C(=O)N3CCOC(c4ccccc4C)C3)N2C(=O)[C@@H](NC(=O)c2cc3cc(C(F)(F)P(=O)(O)O)ccc3s2)C1 (stereo partly drawn) [Compound 164, ((2-(((5S,8S,10aR)-3-acetyl-6-oxo-8-(2-(o-tolyl)morpholine-4-carbonyl)decahydropyrrolo[1,2-a][1,5]diazocin-5-yl)carbamoyl)benzo[b]thiophen-5-yl)difluoromethyl)phosphonic acid] | 1 to 10 µM | > 10 µM |
| CC(=O)N1CC[C@H]2CC[C@@H](C(=O)Nc3ncc(-c4ccccc4)s3)N2C(=O)[C@@H](NC(=O)c2cc3cc(C(F)(F)P(=O)(O)O)ccc3s2)C1 [Compound 165, ((2-(((5S,8S,10aR)-3-acetyl-6-oxo-8-((5-phenylthiazol-2-yl)carbamoyl)decahydropyrrolo[1,2-a][1,5]diazocin-5-yl)carbamoyl)benzo[b]thiophen-5-yl)difluoromethyl)phosphonic acid] | 1 to 10 µM | 1 to 10 µM |
| CC(=O)N1CCN(C(=O)[C@@H]2CCCN2C(=O)[C@@H](NC(=O)c2cc3cc(C(F)(F)P(=O)(O)O)ccc3s2)C(C)(C)C)C[C@H]1c1ccccc1 [Compound 166, ((2-(((S)-1-((S)-2-((R)-4-acetyl-3-phenylpiperazine-1-carbonyl)pyrrolidin-1-yl)-3,3-dimethyl-1-oxobutan-2-yl)carbamoyl)benzo[b]thiophen-5-yl)difluoromethyl)phosphonic acid] | 1 to 10 µM | > 10 µM |
